Experimental data: patent publication US20170190671A1, “BIS(ARYL)CATECHOL DERIVATIVES AS HERBICIDES” (E I DU PONT DE NEMOURS AND COMPANY, priority 2014, published 2017)

What was measured:
[1] = system: waterhemp (common waterhemp, Amaranthus rudis); test: Test C postemergence; format: in vivo; conditions: Amaranthus tuberculatus, post-emergence, Postemergence, scale 0 to 100, read-out: Plant response rating, Waterhemp; for pest or weed control at 31 g/ha: 31 g ai/ha; for pest or weed control at 62 g/ha: 62 g ai/ha; for pest or weed control at 125 g/ha: 125 g ai/ha
In short: (§1)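 Visual ratings were made 13-15 days after treatment in the greenhouse, scored 0-100 against controls, where 100 means complete control. Treatments used a surfactant-containing non-phytotoxic solvent formulation, applied preemergence to seeds in loam-sand soil or postemergence to 2-18 cm plants (1-4 leaves) in peat-based medium.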

[2] = system: pigweed (Amaranthus retroflexus); test: Test C postemergence; format: in vivo; conditions: Amaranthus retroflexus, post-emergence, 336 h, Postemergence, scale 0 to 100, read-out: Plant response rating, Pigweed; for pest or weed control at 31 g/ha: 31 g ai/ha; for pest or weed control at 62 g/ha: 62 g ai/ha; for pest or weed control at 125 g/ha: 125 g ai/ha
In short: as §1

[3] = system: kochia (Kochia scoparia); test: Test A postemergence; format: in vivo; conditions: Bassia scoparia, post-emergence, 240 h, 0 to 100 scale, read-out: Plant response rating, Kochia; for pest or weed control at 31 g/ha: 31 g ai/ha; for pest or weed control at 125 g/ha: 125 g ai/ha
In short: (§2)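 Greenhouse pot test, loam/sand soil. Formulation: non-phytotoxic solvent mix plus surfactant. Pre: directed spray onto soil after sowing. Post: plants at 1–2 leaf, 2–10 cm. Rated visually vs untreated controls at ~10 d, 0 (no effect) to 100 (complete control).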

[4] = system: wheat (Triticum aestivum); test: Test A postemergence; format: in vivo; conditions: Triticum aestivum, post-emergence, 240 h, 0 to 100 scale, read-out: Plant response rating, Wheat; for plant injury at 31 g/ha: 31 g ai/ha; for plant injury at 125 g/ha: 125 g ai/ha
In short: as §2

[5] = system: ragweed (common ragweed, Ambrosia elatior); test: Test A postemergence; format: in vivo; conditions: Ambrosia artemisiifolia, post-emergence, 240 h, 0 to 100 scale, read-out: Plant response rating, Ragweed; for pest or weed control at 31 g/ha: 31 g ai/ha; for pest or weed control at 125 g/ha: 125 g ai/ha
In short: as §2

[6] = system: corn (Zea mays); test: Test A postemergence; format: in vivo; conditions: Zea mays, post-emergence, 240 h, 0 to 100 scale; for Corn plant response rating (crop injury, 0 = no effect, 100 = complete kill) at 31 g/ha: 31 g ai/ha; for Corn plant response rating (crop injury, 0 = no effect, 100 = complete kill) at 125 g/ha: 125 g ai/ha
In short: as §2

[7] = system: barnyardgrass (Echinochloa crus-galli); test: Test A postemergence; format: in vivo; conditions: Echinochloa crus-galli, post-emergence, 240 h, 0 to 100 scale, read-out: Plant response rating, Barnyardgrass; for pest or weed control at 31 g/ha: 31 g ai/ha; for pest or weed control at 125 g/ha: 125 g ai/ha
In short: as §2

[8] = system: galium (catchweed bedstraw, Galium aparine); test: Test A postemergence; format: in vivo; conditions: Galium, post-emergence, 240 h, 0 to 100 scale, read-out: Plant response rating, Galium; for pest or weed control at 31 g/ha: 31 g ai/ha; for pest or weed control at 125 g/ha: 125 g ai/ha
In short: as §2

[9] = system: giant foxtail (Setaria faberii); test: Test A postemergence; format: in vivo; conditions: Setaria faberi, post-emergence, 240 h, 0 to 100 scale, read-out: Plant response rating, Foxtail, Giant; for pest or weed control at 31 g/ha: 31 g ai/ha; for pest or weed control at 125 g/ha: 125 g ai/ha
In short: as §2

[10] = system: Italian ryegrass (Lolium multiflorum); test: Test A postemergence; format: in vivo; conditions: Lolium multiflorum, post-emergence, 240 h, 0 to 100 scale, read-out: Plant response rating, Ryegrass, Italian; for pest or weed control at 31 g/ha: 31 g ai/ha; for pest or weed control at 125 g/ha: 125 g ai/ha
In short: as §2

[11] = system: pigweed (Amaranthus retroflexus); test: Test A postemergence; format: in vivo; conditions: Amaranthus retroflexus, post-emergence, 240 h, 0 to 100 scale, read-out: Plant response rating, Pigweed; for pest or weed control at 31 g/ha: 31 g ai/ha; for pest or weed control at 125 g/ha: 125 g ai/ha
In short: as §2

[12] = system: blackgrass (Alopecurus myosuroides); test: Test A postemergence; format: in vivo; conditions: Alopecurus myosuroides, post-emergence, 240 h, 0 to 100 scale, read-out: Plant response rating, Blackgrass; for pest or weed control at 31 g/ha: 31 g ai/ha; for pest or weed control at 125 g/ha: 125 g ai/ha
In short: as §2

[13] = system: rice (Oryza sativa); test: Test B flooded paddy; format: in vivo; conditions: Oryza sativa, 336 h; 250 g ai/ha, Flood, 13 to 15 days, scale 0 (no effect) to 100 (complete control); read-out: Plant response rating, Rice
In short: (§3)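 Flooded 3 cm over soil; compound into paddy water; depth kept constant. Greenhouse 13–15 d.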

[14] = system: sedge, umbrella (small-flower umbrella sedge, Cyperus difformis); test: Test B flooded paddy; format: in vivo; conditions: Cyperus difformis, 336 h; 250 g ai/ha, Flood, 13 to 15 days, scale 0 (no effect) to 100 (complete control); read-out: Plant response rating, Sedge, Umbrella
In short: as §3

[15] = system: barnyardgrass (Echinochloa crus-galli); test: Test B flooded paddy; format: in vivo; conditions: Echinochloa crus-galli, 336 h; 250 g ai/ha, Flood, 13 to 15 days, scale 0 (no effect) to 100 (complete control); read-out: Plant response rating, Barnyardgrass
In short: as §3

[16] = system: ducksalad (Heteranthera limosa); test: Test B flooded paddy; format: in vivo; conditions: Heteranthera limosa, 336 h; 250 g ai/ha, Flood, 13 to 15 days, scale 0 (no effect) to 100 (complete control); read-out: Plant response rating, Ducksalad
In short: as §3

[17] = system: kochia (Kochia scoparia); test: Test A preemergence; format: in vivo; conditions: Bassia scoparia, pre-emergence, 240 h, 0 to 100 scale (0 no effect, 100 complete control), read-out: Kochia plant response rating; for pest or weed control at 31 g/ha: 31 g ai/ha; for pest or weed control at 125 g/ha: 125 g ai/ha
In short: as §2

[18] = system: ragweed (common ragweed, Ambrosia elatior); test: Test A preemergence; format: in vivo; conditions: Ambrosia artemisiifolia, pre-emergence, 240 h, 0 to 100 scale (0 no effect, 100 complete control), read-out: Ragweed plant response rating; for pest or weed control at 31 g/ha: 31 g ai/ha; for pest or weed control at 125 g/ha: 125 g ai/ha
In short: as §2

[19] = system: barnyardgrass (Echinochloa crus-galli); test: Test A preemergence; format: in vivo; conditions: Echinochloa crus-galli, pre-emergence, 240 h, 0 to 100 scale (0 no effect, 100 complete control), read-out: Barnyardgrass plant response rating; for pest or weed control at 31 g/ha: 31 g ai/ha; for pest or weed control at 125 g/ha: 125 g ai/ha
In short: as §2

[20] = system: giant foxtail (Setaria faberii); test: Test A preemergence; format: in vivo; conditions: Setaria faberi, pre-emergence, 240 h, 0 to 100 scale (0 no effect, 100 complete control), read-out: Foxtail, Giant plant response rating; for pest or weed control at 31 g/ha: 31 g ai/ha; for pest or weed control at 125 g/ha: 125 g ai/ha
In short: as §2

[21] = system: Italian ryegrass (Lolium multiflorum); test: Test A preemergence; format: in vivo; conditions: Lolium multiflorum, pre-emergence, 240 h, 0 to 100 scale (0 no effect, 100 complete control), read-out: Ryegrass, Italian plant response rating; for pest or weed control at 31 g/ha: 31 g ai/ha; for pest or weed control at 125 g/ha: 125 g ai/ha
In short: as §2

[22] = system: pigweed (Amaranthus retroflexus); test: Test A preemergence; format: in vivo; conditions: Amaranthus retroflexus, pre-emergence, 240 h, 0 to 100 scale (0 no effect, 100 complete control), read-out: Pigweed plant response rating; for pest or weed control at 31 g/ha: 31 g ai/ha; for pest or weed control at 125 g/ha: 125 g ai/ha
In short: as §2

Compound N#Cc1cccc(Oc2ncc(Cl)cn2)c1Oc1ncc(C(F)(F)F)cn1 [Compound 38, 3-[(5-chloro-2-pyrimidinyl)oxy]-2-[[5-(trifluoromethyl)-2-pyrimidinyl]oxy]-benzonitrile] has a pest or weed control at 31 g/ha [1] of 75%, a pest or weed control at 62 g/ha [1] of 85% and a pest or weed control at 125 g/ha [1] of 95%. For the same compound, the pest or weed control at 31 g/ha [2] was 85%, the pest or weed control at 62 g/ha [2] was 90% and the pest or weed control at 125 g/ha [2] was 90%. It also gave a melting point of 101 to 103 °C, a pest or weed control at 31 g/ha [3] of 100% and a pest or weed control at 125 g/ha [3] of 100%. For the same compound, the plant injury at 31 g/ha [4] was 20%, the plant injury at 125 g/ha [4] was 90% and the pest or weed control at 31 g/ha [5] was 40%. For the same compound, the pest or weed control at 125 g/ha [5] was 70%, the Corn plant response rating (crop injury, 0 = no effect, 100 = complete kill) at 31 g/ha [6] was 40% and the Corn plant response rating (crop injury, 0 = no effect, 100 = complete kill) at 125 g/ha [6] was 90%. The pest or weed control at 31 g/ha [7] was 90%, the pest or weed control at 125 g/ha [7] was 90% and the pest or weed control at 31 g/ha [8] was 80%. For the same compound, the pest or weed control at 125 g/ha [8] was 100%, the pest or weed control at 31 g/ha [9] was 100% and the pest or weed control at 125 g/ha [9] was 100%. For the same compound, the pest or weed control at 31 g/ha [10] was 50%, the pest or weed control at 125 g/ha [10] was 90% and the pest or weed control at 31 g/ha [11] was 100%. For the same compound, the pest or weed control at 125 g/ha [11] was 100%, the pest or weed control at 31 g/ha [12] was 40% and the pest or weed control at 125 g/ha [12] was 90%. The plant injury at 250 g/ha [13] was 45%, the pest or weed control at 250 g/ha [14] was 100% and the pest or weed control at 250 g/ha [15] was 85%. The pest or weed control at 250 g/ha [16] was 100%, the pest or weed control at 31 g/ha [17] was 90% and the pest or weed control at 125 g/ha [17] was 100%. For the same compound, the pest or weed control at 31 g/ha [18] was 30%, the pest or weed control at 125 g/ha [18] was 90% and the pest or weed control at 31 g/ha [19] was 80%. It also gave a pest or weed control at 125 g/ha [19] of 100%, a pest or weed control at 31 g/ha [20] of 100% and a pest or weed control at 125 g/ha [20] of 100%. It also gave a pest or weed control at 31 g/ha [21] of 10%, a pest or weed control at 125 g/ha [21] of 90% and a pest or weed control at 31 g/ha [22] of 100%. The pest or weed control at 125 g/ha [22] was 100%.
Compound N#Cc1cccc(Oc2ncc(Cl)cn2)c1Oc1ccc(Cl)cc1 [Compound 36] has a pest or weed control at 31 g/ha [1] of 90%, a pest or weed control at 62 g/ha [1] of 100% and a pest or weed control at 125 g/ha [1] of 98%. It also gave a pest or weed control at 31 g/ha [2] of 90%, a pest or weed control at 62 g/ha [2] of 98% and a pest or weed control at 125 g/ha [2] of 100%. For the same compound, the melting point was 172 to 175 °C, the pest or weed control at 31 g/ha [3] was 80% and the pest or weed control at 125 g/ha [3] was 100%. The plant injury at 31 g/ha [4] was 0%, the plant injury at 125 g/ha [4] was 10% and the pest or weed control at 31 g/ha [5] was 10%. For the same compound, the pest or weed control at 125 g/ha [5] was 20%, the Corn plant response rating (crop injury, 0 = no effect, 100 = complete kill) at 31 g/ha [6] was 20% and the Corn plant response rating (crop injury, 0 = no effect, 100 = complete kill) at 125 g/ha [6] was 20%. The pest or weed control at 31 g/ha [7] was 10%, the pest or weed control at 125 g/ha [7] was 30% and the pest or weed control at 31 g/ha [8] was 90%. It also gave a pest or weed control at 125 g/ha [8] of 100%, a pest or weed control at 31 g/ha [9] of 20% and a pest or weed control at 125 g/ha [9] of 50%. For the same compound, the pest or weed control at 31 g/ha [10] was 0%, the pest or weed control at 125 g/ha [10] was 10% and the pest or weed control at 31 g/ha [11] was 90%. The pest or weed control at 125 g/ha [11] was 100%, the pest or weed control at 31 g/ha [12] was 20% and the pest or weed control at 125 g/ha [12] was 40%. For the same compound, the plant injury at 250 g/ha [13] was 0%, the pest or weed control at 250 g/ha [14] was 95% and the pest or weed control at 250 g/ha [15] was 0%. For the same compound, the pest or weed control at 250 g/ha [16] was 65%, the pest or weed control at 31 g/ha [17] was 10% and the pest or weed control at 125 g/ha [17] was 50%. For the same compound, the pest or weed control at 31 g/ha [18] was 0%, the pest or weed control at 125 g/ha [18] was 0% and the pest or weed control at 31 g/ha [19] was 0%. The pest or weed control at 125 g/ha [19] was 40%, the pest or weed control at 31 g/ha [20] was 70% and the pest or weed control at 125 g/ha [20] was 90%. For the same compound, the pest or weed control at 31 g/ha [21] was 0%, the pest or weed control at 125 g/ha [21] was 20% and the pest or weed control at 31 g/ha [22] was 60%. It also gave a pest or weed control at 125 g/ha [22] of 100%.
